{
  "source": "PubChem BioAssay AID2060624",
  "about": "(Molecular Pharmacology Branch, DTP, NCI, 2025)",
  "system": "217524-143-R1-J4-PDC spheroids with HUVEC/MSC, viability",
  "assay": "Anticancer human tumor 217524-143-R1-J4-PDC patient-derived pancreatic carcinoma cell line growth inhibition [CLK]",
  "conditions": "for viability, T/C: stronger effect = lower value",
  "text": "A high-throughput screen of multi-cell type tumor spheroids was designed to identify active combinations of […] and targeted small molecules. Complex spheroids include a stromal component modeled by human endothelial cells (HUVEC) and fibroblasts modeled by human mesenchymal stem cells (MSCs). The concentration ranges selected for each drug and investigational agent were based upon clinically achievable concentrations if the clinical Cmax of the agent was known.\nCompounds. The drugs and investigational agents: cirtuvivint (SM08502; NSC835563), CC-671 (NSC850746), vemurafenib (NSC761431), tapotoclax (NSC804041), sotorasib (NSC818433), adagrasib (NSC831453), MRTX-1133 (NSC836407), BAY2416964 (NSC825713), copanlisib (NSC816437), inavolisib (NSC800729), abemaciclib (NSC768073), osimertinib (NSC779217), entinostat (NSC756642), eltanexor (KPT-8602, NSC794443), venetoclax (NSC766270), ceralasertib (NSC777638), bortezomib (NSC756655), olaparib (NSC753686), talazoparib (NSC767125), alisertib (NSC759677), peposertib (NSC802822), gemcitabine (NSC613327), 5-fluorouracil (NSC19893), SN-38 (NSC673596), oxaliplatin (NSC266046), paclitaxel (NSC125973), and doxorubicin (NSC123127), were obtained from the National Cancer Institute (NCI) Developmental Therapeutics Program Chemical Repository. The FDA-approved anticancer drug set is available from the Developmental Therapeutics Program at https://dtp.cancer.gov/organization/dscb/obtaining/available plates.htm. […] The stock solutions were prepared in dimethyl sulfoxide (DMSO, Sigma-Aldrich, St. Louis, MO, cat. D2650), except for the platinum complexes which were prepared in saline (Quality Biological, Gaithersburg, MD, cat. 114-055-101), at 800-fold the tested concentration and stored at -70 degrees C prior to their use. All drugs and investigational agents were tested over a range starting from a high concentration at or near the clinical Cmax and decreasing in half-log increments. If the clinical Cmax for an agent had not been determined, the highest concentration tested was 10 microM.\nCell Culture. All cells were maintained in an incubator at 37 degrees C and 5% CO2 with 95% humidity. The PDC lines were cultured according to standard operating procedures established by the NCI PDMR. Briefly, all PDCs were thawed and cultured in Matrigel-coated flasks prepared with a working solution of 1X Ham's F-12 nutrient mix, without supplementation (Invitrogen, Waltham, MA, cat. 11765054), 100 U/mL penicillin-streptomycin (Invitrogen, cat. 15140122), and 2.5% Matrigel (Corning Inc., Corning, NY, cat. 354248) for the first three passages. The 947758-054-R-J2-PDC line was cultured in 6B/Colon 1A media, which includes advanced DMEM/F-12 (Thermo Fisher Scientific, cat. 12634028), 10 mM HEPES (Thermo Fisher Scientific, cat. 15630080), 1X GlutaMAX supplement (Thermo Fisher Scientific, cat. 35050061), 0.1 mg/mL primocin (InvivoGen, cat. ant-pm-2), 10% defined fetal bovine serum, heat inactivated (HyClone Laboratories Inc., cat. SH30070.03HI), 1.25 mM N-Acetyl-L-cysteine (Sigma-Aldrich, cat. A9165), 10 mM nicotinamide (Sigma-Aldrich, cat. N0636), 1X B-27 supplement (Thermo Fisher Scientific, cat. 17504044), 1X N-2 supplement (Thermo Fisher Scientific, cat. 17502048), and 10 microM Y-27632 dihydrochloride (Tocris Bioscience, cat. 1254). The 876862-298-R-J1-PDC was cultured in 6E media, which includes all 6B/Colon 1A media components plus 50% L-WRN conditioned media (ATCC, cat. CRL-3276), 50 ng/mL recombinant human EGF recombinant protein (hEGF; Thermo Fisher Scientific, cat. PHG0311), 10 ng/mL recombinant human fibroblast growth factor 10 (hGFG-10; PeproTech, cat. 100-26), 1 ng/mL recombinant human fibroblast growth factor 2 (hFGF-2; PeproTech, cat. 100-18B), and 1 µM prostaglandin E2 (PGE2; Tocris, cat. 2296). The 227483-062-R1-J1-PDC line was cultured in Panc media, containing all 6E components except hFGF-2, with the addition of 500 nM SB-431542 (Selleckchem, cat. S1067) and 10 nM gastrin (Tocris, cat. 3006). […]",
  "note": "Several values for one entry are separate records, joined by “and”; a condition that tells them apart may be missing. Identical values can stand only once.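 Also: spheroids exposed to agents for seven days before reading.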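 For viability, T/C in this document: 100% = DMSO vehicle control viability.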",
  "data": [
    {"smiles": "CN1CCN(c2cc(C(=O)Nc3cc4cc(-c5cnn(C)c5)ccc4cn3)ccn2)CC1", "values": [
      {"measurement": "viability, T/C", "setting": "compound 0.1 µM", "value": "54.9% [middle of 12 runs]"},
      {"measurement": "viability, T/C", "setting": "compound 0.316 µM", "value": "21.7% [middle of 12 runs]"},
      {"measurement": "viability, T/C", "setting": "compound 1 µM", "value": "1.79% [middle of 12 runs]"},
      {"measurement": "viability, T/C", "setting": "compound 3.16 µM", "value": "0.9% [middle of 12 runs]"},
      {"measurement": "viability, T/C", "setting": "compound 10 µM", "value": "0.22% [middle of 9 runs]"},
      {"measurement": "IC50", "setting": "compound alone, run of 07/31/2023", "value": "119 nM [middle of 12 runs]"}
    ]},
    {"smiles": "COc1ccc([C@@H](O)c2cc(-c3ncnc4cc(N5CCOCC5)ccc34)c(F)cc2Cl)nn1", "values": [
      {"measurement": "viability, T/C", "setting": "compound 0.0316 µM", "value": "100% and 86.5%"},
      {"measurement": "viability, T/C", "setting": "compound 0.1 µM", "value": "68.5% and 86.3%"},
      {"measurement": "viability, T/C", "setting": "compound 0.316 µM", "value": "58.5% and 56.8%"},
      {"measurement": "viability, T/C", "setting": "compound 1 µM", "value": "52.6% and 42.2%"},
      {"measurement": "viability, T/C", "setting": "compound 3.16 µM", "value": "34.3% and 27.2%"},
      {"measurement": "viability, T/C", "setting": "compound 10 µM", "value": "10.5% and 11.7%"},
      {"measurement": "IC50", "setting": "curve of compound", "value": "756 nM and 632 nM"}
    ]},
    {"smiles": "COc1cccc2c1C(=O)c1c(O)c3c(c(O)c1C2=O)CC(O)(C(=O)CO)CC3OC1CC(N)C(O)C(C)O1", "note": "(configuration not stated)", "values": [
      {"measurement": "viability, T/C", "setting": "compound 0.0316 µM", "value": "36.9% and 42.6%"},
      {"measurement": "viability, T/C", "setting": "compound 0.1 µM", "value": "24.5% and 29.6%"},
      {"measurement": "viability, T/C", "setting": "compound 0.316 µM", "value": "26.5% and 27.4%"},
      {"measurement": "viability, T/C", "setting": "compound 1 µM", "value": "16.9% and 18.4%"},
      {"measurement": "viability, T/C", "setting": "compound 3.16 µM", "value": "3.52% and 3.31%"},
      {"measurement": "viability, T/C", "setting": "compound 10 µM", "value": "1.28% and 0.73%"},
      {"measurement": "IC50", "setting": "curve of compound", "value": "< 31.6", "unit": "nM"}
    ]},
    {"smiles": "C=CC(=O)N1CCN(c2nc(=O)n(-c3c(C)ccnc3C(C)C)c3nc(-c4c(O)cccc4F)c(F)cc23)C(C)C1", "note": "(configuration not stated) + CN1CCN(c2cc(C(=O)Nc3cc4cc(-c5cnn(C)c5)ccc4cn3)ccn2)CC1", "values": [
      {"measurement": "IC50", "setting": "curve of first compound, second compound 0.0316 µM", "value": "> 10000", "unit": "nM"},
      {"measurement": "IC50", "setting": "curve of first compound, second compound 0.1 µM", "value": "> 10000", "unit": "nM"},
      {"measurement": "IC50", "setting": "curve of first compound, second compound 0.316 µM", "value": "< 31.6", "unit": "nM"},
      {"measurement": "IC50", "setting": "curve of first compound, second compound 1 µM", "value": "< 31.6", "unit": "nM"},
      {"measurement": "IC50", "setting": "curve of first compound, second compound 3.16 µM", "value": "< 31.6", "unit": "nM"},
      {"measurement": "IC50", "setting": "curve of first compound, second compound 10 µM", "value": "< 31.6", "unit": "nM"},
      {"measurement": "viability, T/C", "setting": "second compound 0.0316 µM, first compound 0.0316 µM", "value": 93.4, "unit": "%"},
      {"measurement": "viability, T/C", "setting": "second compound 0.0316 µM, first compound 0.1 µM", "value": 71.5, "unit": "%"},
      {"measurement": "viability, T/C", "setting": "second compound 0.0316 µM, first compound 0.316 µM", "value": 67.1, "unit": "%"},
      {"measurement": "viability, T/C", "setting": "second compound 0.0316 µM, first compound 1 µM", "value": 90.5, "unit": "%"},
      {"measurement": "viability, T/C", "setting": "second compound 0.0316 µM, first compound 3.16 µM", "value": 111, "unit": "%"},
      {"measurement": "viability, T/C", "setting": "second compound 0.0316 µM, first compound 10 µM", "value": 95.4, "unit": "%"},
      {"measurement": "viability, T/C", "setting": "second compound 0.1 µM, first compound 0.0316 µM", "value": 62.3, "unit": "%"},
      {"measurement": "viability, T/C", "setting": "second compound 0.1 µM, first compound 0.1 µM", "value": 59, "unit": "%"},
      {"measurement": "viability, T/C", "setting": "second compound 0.1 µM, first compound 0.316 µM", "value": 58.7, "unit": "%"},
      {"measurement": "viability, T/C", "setting": "second compound 0.1 µM, first compound 1 µM", "value": 64.9, "unit": "%"},
      {"measurement": "viability, T/C", "setting": "second compound 0.1 µM, first compound 3.16 µM", "value": 66.7, "unit": "%"},
      {"measurement": "viability, T/C", "setting": "second compound 0.1 µM, first compound 10 µM", "value": 57, "unit": "%"},
      {"measurement": "viability, T/C", "setting": "second compound 0.316 µM, first compound 0.0316 µM", "value": 25.8, "unit": "%"},
      {"measurement": "viability, T/C", "setting": "second compound 0.316 µM, first compound 0.1 µM", "value": 22.5, "unit": "%"},
      {"measurement": "viability, T/C", "setting": "second compound 0.316 µM, first compound 0.316 µM", "value": 27, "unit": "%"},
      {"measurement": "viability, T/C", "setting": "second compound 0.316 µM, first compound 1 µM", "value": 30.8, "unit": "%"},
      {"measurement": "viability, T/C", "setting": "second compound 0.316 µM, first compound 3.16 µM", "value": 31.1, "unit": "%"},
      {"measurement": "viability, T/C", "setting": "second compound 0.316 µM, first compound 10 µM", "value": 22.9, "unit": "%"},
      {"measurement": "viability, T/C", "setting": "second compound 1 µM, first compound 0.0316 µM", "value": 1.96, "unit": "%"},
      {"measurement": "viability, T/C", "setting": "second compound 1 µM, first compound 0.1 µM", "value": 2.92, "unit": "%"},
      {"measurement": "viability, T/C", "setting": "second compound 1 µM, first compound 0.316 µM", "value": 1.65, "unit": "%"},
      {"measurement": "viability, T/C", "setting": "second compound 1 µM, first compound 1 µM", "value": 3.19, "unit": "%"},
      {"measurement": "viability, T/C", "setting": "second compound 1 µM, first compound 3.16 µM", "value": 2.93, "unit": "%"},
      {"measurement": "viability, T/C", "setting": "second compound 1 µM, first compound 10 µM", "value": 2.27, "unit": "%"},
      {"measurement": "viability, T/C", "setting": "second compound 3.16 µM, first compound 0.0316 µM", "value": 1.06, "unit": "%"},
      {"measurement": "viability, T/C", "setting": "second compound 3.16 µM, first compound 0.1 µM", "value": 1.37, "unit": "%"},
      {"measurement": "viability, T/C", "setting": "second compound 3.16 µM, first compound 0.316 µM", "value": 1.15, "unit": "%"},
      {"measurement": "viability, T/C", "setting": "second compound 3.16 µM, first compound 1 µM", "value": 0.96, "unit": "%"},
      {"measurement": "viability, T/C", "setting": "second compound 3.16 µM, first compound 3.16 µM", "value": 1.76, "unit": "%"},
      {"measurement": "viability, T/C", "setting": "second compound 3.16 µM, first compound 10 µM", "value": 1.78, "unit": "%"},
      {"measurement": "viability, T/C", "setting": "second compound 10 µM, first compound 0.0316 µM", "value": 0.21, "unit": "%"},
      {"measurement": "viability, T/C", "setting": "second compound 10 µM, first compound 0.1 µM", "value": 0.25, "unit": "%"},
      {"measurement": "viability, T/C", "setting": "second compound 10 µM, first compound 0.316 µM", "value": 0.24, "unit": "%"},
      {"measurement": "viability, T/C", "setting": "second compound 10 µM, first compound 1 µM", "value": 0.29, "unit": "%"},
      {"measurement": "viability, T/C", "setting": "second compound 10 µM, first compound 3.16 µM", "value": 0.41, "unit": "%"},
      {"measurement": "viability, T/C", "setting": "second compound 10 µM, first compound 10 µM", "value": 0.29, "unit": "%"}
    ]}
  ]
}
